Results published in article PMC12040169 (PLOS Biology, 2025).

Experiment: in vitro
Conditions: human, hela cells, % viability

SMILES	viability at 28.5 h, 10 µM [%]	viability at 28.5 h, 10 µM (bulk resorufin, single well) [%]
COc1ccc(CN2CCN(c3nccnc3OC)CC2)cc1 [CBK084216]	89.6	
CN(C)S(=O)(=O)N1CCN(c2ccc([N+](=O)[O-])c(NC3C4CC5CC(C4)CC3C5)c2)CC1 (stereo not shown) [CBK268986]	102	
Cc1ccc(-c2cncc(N3CCCC3CO)n2)cc1C (stereo not shown) [CBK065945]	89.1	
Cc1ccc2nc(-c3ccc(N4C(=O)CC(N5CCN(CCOCCO)CC5)C4=O)cc3)sc2c1 (stereo not shown) [CBK265362]	86.1	
CC(=O)N1CCCc2cc(C(O)CN3CCCC(C)(C)C3)ccc21 (stereo not shown) [CBK282143]	94.3	
O=C(CN1CCCCC1)Nc1ccc(NC(=O)CN2CCCCC2)c(Cl)c1 [CBK264173]	111	
CN(CC(=O)NC1CCCCC1)S(=O)(=O)c1ccc(F)cc1 [CBK091832]	98.6	
O=C1Oc2nc3ccccc3cc2CN1C1CC1 [CBK282870]	87.9	
Cc1ccc(N(CC(=O)Nc2cc(Cl)ccc2C)S(C)(=O)=O)cc1 [CBK264030]	92.9	
CCc1cc2c(NC(CCSC)C(=O)O)nc(C)nc2s1 (stereo not shown) [CBK266709]	90.3	
Cc1ocnc1C(=O)Nc1nc2c(cc1C#N)CCC2 [CBK306365]	92.7	
OC(COc1ccc(OC(F)(F)F)cc1)CN1CCN(c2nc3ccc(Cl)cc3s2)CC1 (stereo not shown) [CBK074639]	122	
Cc1csc2ncc(C(=O)Nc3cc(C(F)(F)F)ccc3Cl)c(=O)n12 [CBK287465]	94.4	
c1ccc(C(Oc2nccnc2-c2ccc3c(c2)OCO3)c2ccccc2)cc1 [CBK106707]	103	
O=C(O)c1cc(C(=O)O)c2ccccc2n1 [CBK262304]	82.1	
COc1cccc(Cc2c(C)nc3c(C(=O)NCC4COc5ccccc5O4)cnn3c2C)c1 (stereo not shown) [CBK162064]	111	
COc1ccc(Sc2nc(SC)nc(-c3ccccc3)c2C#N)cc1 [CBK291212]	94	
O=C(c1csc(-c2ccncc2)n1)N1CCN(c2ccccc2)CC1 [CBK288590]	110	
O=C(Nc1ccc(F)cc1)c1ccsc1NS(=O)(=O)Cc1ccccc1 [CBK042303]	82.8	
O=C1CCCC[C@]2(CN(Cc3ccccc3)C[C@H]2c2cccnc2)N1 [CBK283342]	106	
c1cncc(-c2nnc([C@H]3CCN(C4CCOCC4)C3)o2)c1 [CBK289398]	93.5	
Cc1nnc(CN(C)C2CCN(Cc3ccc4c(c3)CCC4)C2)n1C (stereo not shown) [CBK304450]	104	

SMILES	viability at 28.5 h, 10 µM [%]	viability at 28.5 h, 10 µM (bulk resorufin, single well) [%]
CC(Oc1cccc2ccccc12)C(=O)N/N=C/c1ccc(Cl)cc1Cl (stereo not shown) [CBK262218]	97	
Cc1ccc(-c2csc(NC(=O)c3ccc(S(=O)(=O)N4CCOCC4)cc3)n2)cc1 [CBK094024]	93.4	
O=C(C1CCCO1)N1CCCCCC1c1cc(-c2cccs2)on1 (stereo not shown) [CBK284340]	97.6	
O=[N+]([O-])c1ccc(S(=O)(=O)CC(CN2CCCCC2)N2CCCCC2)cc1 (stereo not shown) [CBK267070]	100	
O=c1c2scc(-c3cccc(F)c3)c2ncn1Cc1ccc(F)cc1 [CBK287810]	100	
Cc1cc(-c2sc(N)nc2-c2cccs2)on1 [CBK284492]	87.9	
CCc1nn(CCN2CCCC2)c(=O)c2cc3sc(C)cc3n12 [CBK284098]	88.5	
O=c1/c(=C/c2ccc3c(c2)OCO3)sc2nc3cc(Br)cnc3n12 [CBK262550]	106	
CC(C)(C)c1cc(C(=O)O)c(CN2CCOCC2)o1 [CBK264052]	88.7	
COc1ccc(C(=O)NCC2(c3ccccc3)CCCC2)c(OC)c1 [CBK058164]	113	
O=C(O)C1CCC(CNS(=O)(=O)c2ccc(Br)cc2)CC1 (stereo not shown) [CBK027994]	86.1	
CCC(C)(C)c1ccc(S(=O)(=O)N2CCCN(Cc3cccc4c3OCO4)CC2)cc1 [CBK062872]	100	
c1ccc(CCN2CCN(CCC(c3ccccc3)c3ccccc3)CC2)cc1 [CBK126432]	85.4	
O=C(O)CSc1nc2nc3c(cc2c(=O)n1Cc1ccccc1)CCCC3 [CBK286662]	86.4	
O=C1NCCNC(=O)C2(C/C=C/COc3ccccc31)CCN(C(=O)c1cncs1)CC2 [CBK292023]	95.3	
O=C(O)COc1ccccc1/C=C1\C(=O)NC(=O)N(c2ccc(O)cc2)C1=O [CBK265436]		85.2
CCN(CC)CCN(CC(=O)Nc1c(C)cccc1Cl)Cc1ccccc1 [CBK023143]	97.7	
Cc1cc(N2CCCC(COc3ccccc3F)C2)nc(N)n1 (stereo not shown) [CBK306714]	74.4	
CSCCC(NC=C1C(=O)CC(C)(C)CC1=O)C(=O)O (stereo not shown) [CBK261311]	92.9	
O=C(CS(=O)(=O)c1ccccc1)Nc1ccc(OCc2ccccc2)cc1 [CBK269421]	98.4	
O=S(=O)(Nc1cccc(OC(F)(F)F)c1)c1ccc(N2CCNCC2)c2ccccc12 [CBK003935C]	111	
O=c1oc2cc(Oc3ccc([N+](=O)[O-])cc3C(F)(F)F)c(Cl)cc2c2c1CCCC2 [CBK264914]	93.7	

SMILES	viability at 28.5 h, 10 µM [%]	viability at 28.5 h, 10 µM (bulk resorufin, single well) [%]
Cc1ccc(OC2(C(=O)N3CCCC3C(F)(F)F)CCNCC2)cc1 (stereo not shown) [CBK307226]	82.5	
COc1ccc2[nH]c3c(c2c1)CCNC31CCN(CC(=O)C(C)(C)C)CC1 [CBK039471]	98.1	
COc1cc(CNc2ccc(N3CCCCC3)cc2)ccc1OCc1ccccc1F [CBK074472]	95.5	
COc1cccc(OCc2cnc(-c3ccc(Cl)cc3)c(-c3cccc(CNC(C)=O)c3)c2)c1 [CBK165225]	90.5	
CCN1CCN(C(=O)CN(Cc2ccccc2)S(=O)(=O)c2c(C)cc(C)cc2C)CC1 [CBK266670]	98.1	
Clc1cccc(Nc2nc(Br)cn3ccnc23)c1 [CBK066260]	80.6	
O=C(NC1CCCCC1)N1CC[C@H](c2nc3ccccc3o2)C1 [CBK289372]	88.4	
Cc1[nH]c2c(C)ccc(C)c2c1CC(=O)N1[C@@H](c2ccccc2F)C[C@@H]2NC(=O)CCC[C@H]21 [CBK286011]	76.3	
COc1ccc(CCN2CCC(CNC(=O)NCc3ccccc3)CC2)cc1OC [CBK051511T]	92.3	
CN1CCN(NC(=O)COc2cccc(C(F)(F)F)c2)CC1 [CBK268124]	90.2	
CC(C)c1ccc(S(=O)(=O)Nc2cccnc2)cc1 [CBK043884]	97.9	
Cc1cc(C)n(CCCC(=O)N2CCc3ncc(Cl)cc3C2)n1 [CBK284852]	103	
COc1ccc(Br)cc1C(=O)Nc1cc(-c2nc3ccccc3[nH]2)ccc1Cl [CBK264112]	93.6	
CN1CCN(Cc2c(-c3ccc(F)cc3)[nH]c3ncccc23)CC1 [CBK285335]	85.4	
O=C(C1CCC1)N1CCC2(CC1)Nc1cccnc1-n1cccc12 [CBK284505]	92.5	
COCCCNC(=S)N/N=C/c1ccco1 [CBK006272]	104	
CCS(=O)(=O)n1nc(-c2ccc(OC)cc2)nc1SC [CBK266526]	103	
CCOC(=O)C1(Cc2ccc(F)cc2F)CCCN(C(=O)CC)C1 (stereo not shown) [CBK307012]	92.7	
CCN1CC2(CCC1=O)CCN(c1ccnc(OC)c1C#N)CC2 [CBK307018]	95	
Cc1ccc(SCc2ccc(C(=O)NCCN3CCOCC3)cc2)cc1 [CBK269314]	98.7	
COc1cc(-c2nccnc2NCC2CCCCC2)cc(OC)c1OC [CBK037647]	93.9	
COc1ncc(-c2nccnc2OCc2cccs2)c(OC)n1 [CBK106750]	102	

SMILES	viability at 28.5 h, 10 µM [%]	viability at 28.5 h, 10 µM (bulk resorufin, single well) [%]
Cc1ccc(S(=O)(=O)N(C)C)cc1NC(=O)C12CCC(C)(C(=O)C1)C2(C)C (stereo not shown) [CBK266551]	108	
Cc1cc(C)c(NC(=O)CSc2nc(C)c(Cc3ccccc3)c(O)n2)c([N+](=O)[O-])c1 [CBK268715]	86.8	
CCc1cnc(CN(C)C2CCN(Cc3cccc(C(N)=O)c3)C2)o1 (stereo not shown) [CBK305357]	90.5	
O=c1nc(NS(=O)(=O)c2ccccc2Br)c(F)c[nH]1 [CBK067573]	76.6	
CCOC(=O)N1CCC(NC(=O)N2CCCC(C(=O)N(CC)CC)C2)CC1 (stereo not shown) [CBK156159]	109	
CCCCOC(=O)c1c(N)n(CCOC)c2nc3ccccc3nc12 [CBK264961]	96.9	
Cc1cc(C)cc(Nc2c([N+](=O)[O-])nn(-c3cccc(Cl)c3)[n+]2[O-])c1 [CBK268254]	105	
Cc1cc(C(=O)NC(Cc2ccncc2)C2CC(O)C2)c(C)o1 (stereo not shown) [CBK307181]	96.5	
Nc1cc2ccccc2nc1C1CCN(C(=O)C2CC=CCC2)CC1 (stereo not shown) [CBK285016]	88.9	
O=C(c1cccs1)N1CCC(c2nnc3n2CCCCC3)CC1 [CBK284626]	95.7	
CC(C)C(=O)Nc1nc2c(nc(OCc3ccccc3)n2C2CC(O)C(CO)O2)c(=O)[nH]1 (stereo not shown) [CBK201264]	91.8	
O=C(O)c1nn(-c2ccccc2)c2cc([N+](=O)[O-])ccc12 [CBK006532]	95	
COc1cc(OC)nc(C(NC(=O)C2CCN(Cc3ccccc3F)CC2)c2ccc(Cl)cc2)n1 (stereo not shown) [CBK148152]	98	
CC(C)(C)C(=O)N1CCC(n2nc(-c3ccco3)ccc2=O)CC1 [CBK282341]	99.3	
CCOc1ccc(NC(=O)C(C)O)c(NC(=O)c2ccccc2Cl)c1 (stereo not shown) [CBK269678]	92.7	
CS(=O)(=O)c1ccc(-c2cnc(N)c(NC3CCC(O)CC3)n2)cc1 (stereo not shown) [CBK063865]	110	
CCC(=O)NC(=S)Nc1ccc(C(=O)N2CCCC2)cc1 [CBK288464]	108	
O=c1[nH][nH]c2nc(O)cc(C(F)(F)F)c12 [CBK027081]	109	
COc1ccc(COc2nc3ccccc3nc2NC(C)C)cc1OC [CBK116610]	93.5	
C#CCNC(=O)[C@H]1O[C@H](CCN2CCCCC2)CC[C@@H]1O [CBK288728]	101	
Cc1nc2c(c(=O)[nH]1)CN(Cc1ccccc1F)CC2 [CBK283948]	89.3	
O=C(c1ccco1)N1CCN(c2ccc(-c3cccc4cccnc34)cn2)CC1 [CBK037640]	72.4	
